Data reported in paper PMC4893628, “Chalcone-based Selective Inhibitors of a C4 Plant Key Enzyme as Novel Potential Herbicides” (Scientific Reports, 2016).
Where two headings read alike, the source gives them in different places.

Tests used:
[1] = test system: Corynebacterium glutamicum ATCC13032; assay: Bacterial growth in microscale cultivation, C. glutamicum; format: cell-based; settings: relative to control; for activity at 0.3 µM / activity at 3 µM / activity at 30 µM: Corynebacterium glutamicum
Procedure, shortened: (§1)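 Inhibitors in DMSO were added to the medium, at a maximum of 400 μM for trans-chalcone and 100 μM for 2'-hydroxychalcone. Cultures were seeded at OD600 0.5, or 0.25 for B. subtilis, and growth was followed as 620 nm backscatter in a BioLector at 1200 rpm. Final backscatter, growth rate and lag phase were compared with DMSO controls.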

[2] = test system: Escherichia coli K-12 MG1655; assay: Bacterial growth in microscale cultivation, E. coli; format: cell-based; settings: relative to control; for activity at 0.3 µM / activity at 3 µM / activity at 30 µM: Escherichia coli
Procedure, shortened: as §1

Bacillus subtilis 168 = assay: Bacterial growth in microscale cultivation, B. subtilis; format: cell-based; settings: relative to control
Procedure, shortened: as §1

F. trinervia PEPC = target: T1, F. trinervia PEPC (Flaveria trinervia, UniProt P30694); assay: biochemical; format: biochemical
T1 construct: the full-length ppcA gene of PEPC from F. trinervia (EMBL-Bank X61304); made in house; host or cells: Escherichia coli BL21(DE3)
T1 sequence (P30694 1-966): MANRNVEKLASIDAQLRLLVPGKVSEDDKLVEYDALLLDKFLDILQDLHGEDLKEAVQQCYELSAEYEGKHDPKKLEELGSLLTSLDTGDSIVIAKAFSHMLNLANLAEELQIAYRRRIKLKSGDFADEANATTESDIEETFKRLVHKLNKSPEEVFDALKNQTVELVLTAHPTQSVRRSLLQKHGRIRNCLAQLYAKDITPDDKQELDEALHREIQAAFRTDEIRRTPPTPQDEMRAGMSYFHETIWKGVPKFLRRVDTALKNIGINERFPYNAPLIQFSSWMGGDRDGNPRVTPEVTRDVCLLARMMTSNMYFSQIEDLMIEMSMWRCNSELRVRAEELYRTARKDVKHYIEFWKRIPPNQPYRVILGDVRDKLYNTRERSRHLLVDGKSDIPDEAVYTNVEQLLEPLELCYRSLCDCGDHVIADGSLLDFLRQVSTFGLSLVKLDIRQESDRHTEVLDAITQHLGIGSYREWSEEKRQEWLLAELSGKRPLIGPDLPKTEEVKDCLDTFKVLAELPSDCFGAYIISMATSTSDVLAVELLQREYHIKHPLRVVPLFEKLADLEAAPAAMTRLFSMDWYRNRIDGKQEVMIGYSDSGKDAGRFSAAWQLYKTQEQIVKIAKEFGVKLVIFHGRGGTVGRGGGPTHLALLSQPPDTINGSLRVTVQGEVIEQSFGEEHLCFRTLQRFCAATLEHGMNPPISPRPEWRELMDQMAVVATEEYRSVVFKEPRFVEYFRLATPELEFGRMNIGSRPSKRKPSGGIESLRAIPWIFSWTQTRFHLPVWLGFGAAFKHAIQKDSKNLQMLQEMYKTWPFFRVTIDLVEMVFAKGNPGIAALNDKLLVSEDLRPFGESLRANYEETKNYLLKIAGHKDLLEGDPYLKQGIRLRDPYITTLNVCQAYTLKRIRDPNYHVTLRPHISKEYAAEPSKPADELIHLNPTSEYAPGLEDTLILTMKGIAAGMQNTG

O=C(/C=C/c1cc(O)c(O)c(O)c1)c1ccc(O)cc1O [Compound 9, 2′,4′,3,4,5-Pentahydroxychalcone]
activity at 0.3 µM ([1]; ATCC13032, complex medium, 0.3 µM, read-out: Final Backscatter): 99.6% | activity at 0.3 µM ([1]; ATCC13032, complex medium, 0.3 µM, read-out: Growth rate): 104% | activity at 3 µM ([1]; ATCC13032, complex medium, 3 µM, read-out: Final Backscatter): 102% | activity at 3 µM ([1]; ATCC13032, complex medium, 3 µM, read-out: Growth rate): 111% | activity at 30 µM ([1]; ATCC13032, complex medium, 30 µM, read-out: Final Backscatter): 96.7% | activity at 30 µM ([1]; ATCC13032, complex medium, 30 µM, read-out: Growth rate): 112% | activity at 0.3 µM ([1]; ATCC13032, minimal medium, 0.3 µM, read-out: Final Backscatter): 99.9% | activity at 0.3 µM ([1]; ATCC13032, minimal medium, 0.3 µM, read-out: Growth rate): 104% | activity at 3 µM ([1]; ATCC13032, minimal medium, 3 µM, read-out: Final Backscatter): 96.9% | activity at 3 µM ([1]; ATCC13032, minimal medium, 3 µM, read-out: Growth rate): 103% | activity at 30 µM ([1]; ATCC13032, minimal medium, 30 µM, read-out: Final Backscatter): 97.7% | activity at 30 µM ([1]; ATCC13032, minimal medium, 30 µM, read-out: Growth rate): 97.3% | Lag Phase ([1]; complex medium, 0.3 µM): 98,5% | Lag Phase ([1]; complex medium, 3 µM): 98,0% | Lag Phase ([1]; complex medium, 30 µM): 94,5% | Lag Phase ([1]; minimal medium, 0.3 µM): 98,6% | Lag Phase ([1]; minimal medium, 3 µM): 98,6% | Lag Phase ([1]; minimal medium, 30 µM): 98,6% | activity at 0.3 µM ([2]; MG1655, complex medium, 0.3 µM, read-out: Final Backscatter): 100% | activity at 0.3 µM ([2]; MG1655, complex medium, 0.3 µM, read-out: Growth rate): 103% | activity at 3 µM ([2]; MG1655, complex medium, 3 µM, read-out: Final Backscatter): 99.7% | activity at 3 µM ([2]; MG1655, complex medium, 3 µM, read-out: Growth rate): 95.4% | activity at 30 µM ([2]; MG1655, complex medium, 30 µM, read-out: Final Backscatter): 98.2% | activity at 30 µM ([2]; MG1655, complex medium, 30 µM, read-out: Growth rate): 87.6% | activity at 0.3 µM ([2]; MG1655, minimal medium, 0.3 µM, read-out: Final Backscatter): 100% | activity at 0.3 µM ([2]; MG1655, minimal medium, 0.3 µM, read-out: Growth rate): 106% | activity at 3 µM ([2]; MG1655, minimal medium, 3 µM, read-out: Final Backscatter): 101% | activity at 3 µM ([2]; MG1655, minimal medium, 3 µM, read-out: Growth rate): 110% | activity at 30 µM ([2]; MG1655, minimal medium, 30 µM, read-out: Final Backscatter): 102% | activity at 30 µM ([2]; MG1655, minimal medium, 30 µM, read-out: Growth rate): 110% | Lag Phase ([2]; complex medium, 0.3 µM): 103,4% | Lag Phase ([2]; complex medium, 3 µM): 103,4% | Lag Phase ([2]; complex medium, 30 µM): 110,3% | Lag Phase ([2]; minimal medium, 0.3 µM): 100,0% | Lag Phase ([2]; minimal medium, 3 µM): 98,2% | Lag Phase ([2]; minimal medium, 30 µM): 96,4% | activity at 0.3 µM (Bacillus subtilis 168; Bacillus subtilis, 168, complex medium, 0.3 µM, read-out: Final Backscatter): 100% | activity at 0.3 µM (Bacillus subtilis 168; Bacillus subtilis, 168, complex medium, 0.3 µM, read-out: Growth rate): 111% | activity at 3 µM (Bacillus subtilis 168; Bacillus subtilis, 168, complex medium, 3 µM, read-out: Final Backscatter): 99.7% | activity at 3 µM (Bacillus subtilis 168; Bacillus subtilis, 168, complex medium, 3 µM, read-out: Growth rate): 112% | activity at 30 µM (Bacillus subtilis 168; Bacillus subtilis, 168, complex medium, 30 µM, read-out: Final Backscatter): 98.6% | activity at 30 µM (Bacillus subtilis 168; Bacillus subtilis, 168, complex medium, 30 µM, read-out: Growth rate): 104% | activity at 0.3 µM (Bacillus subtilis 168; Bacillus subtilis, 168, minimal medium, 0.3 µM, read-out: Final Backscatter): 104% | activity at 0.3 µM (Bacillus subtilis 168; Bacillus subtilis, 168, minimal medium, 0.3 µM, read-out: Growth rate): 99.6% | activity at 3 µM (Bacillus subtilis 168; Bacillus subtilis, 168, minimal medium, 3 µM, read-out: Final Backscatter): 103% | activity at 3 µM (Bacillus subtilis 168; Bacillus subtilis, 168, minimal medium, 3 µM, read-out: Growth rate): 101% | activity at 30 µM (Bacillus subtilis 168; Bacillus subtilis, 168, minimal medium, 30 µM, read-out: Final Backscatter): 107% | activity at 30 µM (Bacillus subtilis 168; Bacillus subtilis, 168, minimal medium, 30 µM, read-out: Growth rate): 90.7% | Lag Phase (Bacillus subtilis 168; complex medium, 0.3 µM): 100,0% | Lag Phase (Bacillus subtilis 168; complex medium, 3 µM): 100,0% | Lag Phase (Bacillus subtilis 168; complex medium, 30 µM): 97,4% | Lag Phase (Bacillus subtilis 168; minimal medium, 0.3 µM): 91,7% | Lag Phase (Bacillus subtilis 168; minimal medium, 3 µM): 98,8% | Lag Phase (Bacillus subtilis 168; minimal medium, 30 µM): 94,1% | Selectivity C4/C3 (F. trinervia PEPC; C4 PEPC over C3 isoform): 8.1 fold | IC50 (F. trinervia PEPC; C4 PEPC, read-out: IC50 F. trinervia PEPC): 4.2 ± 1.4 µM
